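In this assay, cells in 96-well plates receive the compound at five concentrations for 48 hours. Endpoints are linearly interpolated between the surrounding concentrations. The concentration for 50% growth inhibition is given as GI50.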 Active and inactive are the calls of the source. Rule as the data show it: active = GI50 up to about 1.1 µM and inactive = higher.
Columns and labels:
Experiment in all cases: NCI anticancer screen, dose series, 48 h
[1] = system: MDA-MB-435
[2] = system: MDA-N
[3] = system: SF-295
[4] = system: SNB-19
[5] = system: SNB-75
[6] = system: SK-MEL-2
[7] = system: Malme-3M
[8] = system: OVCAR-3
[9] = system: SR
[10] = system: NCI-H460
[11] = system: NCI-H23
[12] = system: HCT-15
[13] = system: MOLT-4
[14] = system: RXF 393
[15] = system: M14
[16] = system: SF-268
[17] = system: HCT-116
[18] = system: LOX IMVI
[19] = system: CCRF-CEM

Structure (SMILES) | GI50 [1] | GI50 [2] | GI50 [3] | GI50 [4] | GI50 [5] | GI50 [6] | GI50 [7] | GI50 [8] | GI50 [9] | GI50 [10] | GI50 [11] | GI50 [12] | GI50 [13] | GI50 [14] | GI50 [15] | GI50 [16] | GI50 [17] | GI50 [18] | GI50 [19]
NCCC1CN(C(=O)OCc2ccccc2)c2ccccc21 (configuration not stated) | 14.8 µM (inactive) | 13.5 µM (inactive) | 18.3 µM (inactive) | 19.5 µM (inactive) | 12.3 µM (inactive) | 18 µM (inactive) | 14.8 µM (inactive) | 16.7 µM (inactive) | 2.9 µM (inactive) | 17.7 µM (inactive) | 15 µM (inactive) | 1.78 µM | 12 µM (inactive) | 8.45 µM (inactive) | 13.8 µM (inactive) | 17.1 µM (inactive) | 3.59 µM (inactive) | 4.12 µM (inactive) | 
O=S(=O)(O)c1ccc(Nc2ccnc3ccccc23)cc1 | > 100 µM (inactive) | > 100 µM (inactive) | > 100 µM (inactive) | > 100 µM (inactive) | > 100 µM (inactive) | > 100 µM (inactive) | > 100 µM (inactive) |  | > 100 µM (inactive) |  | > 100 µM (inactive) | > 100 µM | > 100 µM (inactive) | > 100 µM (inactive) | > 100 µM (inactive) | > 100 µM (inactive) | > 100 µM (inactive) | > 100 µM (inactive) | > 100 µM (inactive)
c1ccc2c(c1)/C(=N\NC1=NCCN1)c1nc3ccccc3nc1-2 | 6.32 µM (inactive) | 7.19 µM (inactive) | 2.45 µM (inactive) | 6.44 µM (inactive) | 0.923 µM (active) |  | 10.2 µM (inactive) | 3.24 µM (inactive) | 3.98 µM (inactive) | 2.44 µM (inactive) | 8.73 µM (inactive) | 3.52 µM | 1.13 µM (inactive) | 2.71 µM (inactive) | 6.65 µM (inactive) | 6.67 µM (inactive) | 0.863 µM (active) |  | 3.8 µM (inactive)
CCOP(=O)(OCC)/C(=C\n1ccc(=O)[nH]c1=S)C(=O)OC | > 100 µM (inactive) | > 100 µM (inactive) | > 100 µM (inactive) |  | > 100 µM (inactive) | > 100 µM (inactive) | > 100 µM (inactive) |  | > 100 µM (inactive) | > 100 µM (inactive) | > 100 µM (inactive) | > 100 µM | > 100 µM (inactive) | > 100 µM (inactive) | > 100 µM (inactive) | > 100 µM (inactive) | > 100 µM (inactive) | > 100 µM (inactive) | > 100 µM (inactive)
COc1ccc2c(c1)C1OCCNC1CC2 (configuration not stated) | > 100 µM (inactive) | > 100 µM (inactive) | > 100 µM (inactive) | > 100 µM (inactive) | > 100 µM (inactive) | > 100 µM (inactive) | > 100 µM (inactive) |  | > 100 µM (inactive) |  | > 100 µM (inactive) | > 100 µM | > 100 µM (inactive) | > 100 µM (inactive) | > 100 µM (inactive) | > 100 µM (inactive) | > 100 µM (inactive) | > 100 µM (inactive) | > 100 µM (inactive)
O=S1(=O)OCCCOS(=O)(=O)C1Br | > 100 µM (inactive) | > 100 µM (inactive) | > 100 µM (inactive) | > 100 µM (inactive) | > 100 µM (inactive) | > 100 µM (inactive) | > 100 µM (inactive) | > 100 µM (inactive) | > 100 µM (inactive) |  | > 100 µM (inactive) | > 100 µM | > 100 µM (inactive) | > 100 µM (inactive) | > 100 µM (inactive) | > 100 µM (inactive) | > 100 µM (inactive) | > 100 µM (inactive) | 
Cc1ccc(C2=Nn3c(nc4sc(C)c(C)c4c3=O)SC2)cc1 | > 100 µM (inactive) | > 100 µM (inactive) | > 100 µM (inactive) |  | 56.4 µM (inactive) |  | > 100 µM (inactive) | > 100 µM (inactive) | > 100 µM (inactive) | > 100 µM (inactive) | > 100 µM (inactive) | > 100 µM | > 100 µM (inactive) | > 100 µM (inactive) |  | > 100 µM (inactive) | > 100 µM (inactive) | > 100 µM (inactive) | > 10 µM (inactive)
CSc1ccc(-c2cc(-c3nc4ccccc4[nH]3)no2)cc1 | 18.5 µM (inactive) | 26.9 µM (inactive) | 28.7 µM (inactive) | 40.3 µM (inactive) | 37.6 µM (inactive) | 20.4 µM (inactive) | 35 µM (inactive) | 22.1 µM (inactive) | 23.6 µM (inactive) | 18.4 µM (inactive) | 19.1 µM (inactive) | 9.62 µM | 8.34 µM (inactive) |  | 20.4 µM (inactive) | 32 µM (inactive) | 32.5 µM (inactive) | 24.3 µM (inactive) | 18.4 µM (inactive)
O=C(c1ccccc1)c1c(-c2ccccc2)n(-c2ccccc2)[nH]c(=O)c1=O | 28.2 µM (inactive) | 50.1 µM (inactive) | 28.2 µM (inactive) | 88.3 µM (inactive) |  | 24 µM (inactive) | 22.5 µM (inactive) | 37.2 µM (inactive) | 23.8 µM (inactive) | 44.7 µM (inactive) | 75 µM (inactive) | 78.2 µM | 28.2 µM (inactive) |  | > 100 µM (inactive) | 48.6 µM (inactive) | > 100 µM (inactive) | 25.6 µM (inactive) | 15.5 µM (inactive)
CC(C)(C)OC(=O)NC(Cc1ccc(O)cn1)C(N)=O (configuration not stated) | > 100 µM (inactive) | > 100 µM (inactive) | > 100 µM (inactive) | > 100 µM (inactive) | > 100 µM (inactive) |  | > 100 µM (inactive) | > 100 µM (inactive) | > 100 µM (inactive) | > 100 µM (inactive) | > 100 µM (inactive) | > 100 µM | > 100 µM (inactive) | > 100 µM (inactive) |  | > 100 µM (inactive) | > 100 µM (inactive) | > 100 µM (inactive) | > 10 µM (inactive)
N#Cc1cnc(-n2[nH]c3c(c2=O)CCCC3)[nH]c1=O | 54.5 µM (inactive) | > 100 µM (inactive) | 40.3 µM (inactive) | > 100 µM (inactive) | 0.264 µM (active) | 71.3 µM (inactive) | 50 µM (inactive) |  | 23.8 µM (inactive) | 36.5 µM (inactive) | 54.3 µM (inactive) | 41.1 µM | 44.5 µM (inactive) | > 100 µM (inactive) | 38.1 µM (inactive) | 46 µM (inactive) | 38 µM (inactive) |  | 31.9 µM (inactive)
O=C(Cc1ccccc1)c1ccc2[nH]c(=O)oc2c1 | 33.7 µM (inactive) | 39.3 µM (inactive) | 38.2 µM (inactive) |  | 0.126 µM (active) | 32.6 µM (inactive) |  | 35.2 µM (inactive) | 38.3 µM (inactive) | 38.8 µM (inactive) | 51.3 µM (inactive) | 58.9 µM | 31.6 µM (inactive) | 39.6 µM (inactive) | 47 µM (inactive) | 16.5 µM (inactive) | 43.8 µM (inactive) | 52.1 µM (inactive) | > 100 µM (inactive)
CCOC(=O)N/N=C(\Cc1ccccc1)OCC | > 100 µM (inactive) | > 100 µM (inactive) | > 100 µM (inactive) | > 100 µM (inactive) | > 100 µM (inactive) | > 100 µM (inactive) |  | > 100 µM (inactive) | > 100 µM (inactive) |  | > 100 µM (inactive) | > 100 µM | > 100 µM (inactive) | > 100 µM (inactive) | > 100 µM (inactive) | > 100 µM (inactive) | > 100 µM (inactive) | > 100 µM (inactive) | > 100 µM (inactive)
O=C(O)/C=C/C(=O)N1Cc2cc3ccccc3nc2C1 | > 100 µM (inactive) | > 100 µM (inactive) | > 100 µM (inactive) | > 100 µM (inactive) | > 100 µM (inactive) | > 100 µM (inactive) | > 100 µM (inactive) | > 100 µM (inactive) | > 100 µM (inactive) | > 100 µM (inactive) | > 100 µM (inactive) | > 100 µM | > 100 µM (inactive) | > 100 µM (inactive) | > 100 µM (inactive) | > 100 µM (inactive) | > 100 µM (inactive) | > 100 µM (inactive) | 
O=C1OC[C@@H]2[C@@H](O)CCCCCN12 | > 100 µM (inactive) | > 100 µM (inactive) | > 100 µM (inactive) | > 100 µM (inactive) | > 100 µM (inactive) | > 100 µM (inactive) |  | > 100 µM (inactive) | > 100 µM (inactive) | > 100 µM (inactive) |  | > 100 µM | > 100 µM (inactive) | > 100 µM (inactive) |  |  | > 100 µM (inactive) | > 100 µM (inactive) | > 100 µM (inactive)
O=C(Nc1cccc([N+](=O)[O-])c1)c1nnn(-c2cccc([N+](=O)[O-])c2)c1O | > 100 µM (inactive) | > 100 µM (inactive) | > 100 µM (inactive) | > 100 µM (inactive) | > 100 µM (inactive) | > 100 µM (inactive) | > 100 µM (inactive) |  | > 100 µM (inactive) |  | > 100 µM (inactive) |  | > 100 µM (inactive) | > 100 µM (inactive) | > 100 µM (inactive) | > 100 µM (inactive) | > 100 µM (inactive) | > 100 µM (inactive) | > 100 µM (inactive)
CCCCCC(=O)N[C@@H](c1ccccc1)C(O)C(=O)OC1C[C@@]2(O)C(OC(=O)c3ccccc3)C3[C@](C)(C(=O)[C@H](O)C(=C1C)C2(C)C)C(OC1OCC(O)C(O)C1O)C[C@H]1OC[C@@]31OC(C)=O (some centres not stated) | 0.202 µM (active) | 0.078 µM (active) | 21.2 µM (inactive) | 4.91 µM (inactive) | 0.147 µM (active) |  |  | 0.706 µM (active) | 2.41 µM (inactive) | 0.757 µM (active) | 3.68 µM (inactive) | > 100 µM | 2.45 µM (inactive) | 1.98 µM (inactive) | 2.32 µM (inactive) | 2.32 µM (inactive) | 0.516 µM (active) |  | 1.57 µM (inactive)
